Laboratory results as given in patent publication US11458171B2, “Engineering stem cells for cancer therapy” (CHINA MEDICAL UNIVERSITY, priority 2018, dated 2022).

Tested on: UMSCs
Assay: Effect of GCV on plain UMSCs
Type: cell-based, human
Conditions: GCV alone on unmodified UMSCs

Structure (SMILES): Nc1nc(O)c2ncn(COC(CO)CO)c2n1 [GCV, ganciclovir]
- cell proliferation of UMSCs: did not affect cell proliferation
